Measured values: ChEMBL document CHEMBL4330125, “Fluoromethylcyclopropylamine derivatives as potential in vivo toxicophores - A cautionary disclosure” (Bioorg Med Chem Lett, 2019)

Assays:
Conditions in all cases: in vivo
[1] = Toxicity in CD-1 mouse at 5 mg/kg, po administered as single dose via gavage; assay type: organism-based
[2] = Toxicity in CD-1 mouse assessed as ataxia at 5 mg/kg, po administered as single dose via gavage measured after 5 hrs; assay type: organism-based
[3] = Ratio of fCmax in CD-1 mouse at 10 mg/kg, po to IC50 for PARG in human HeLa cells; assay type: ADME, organism-based
[4] = Hepatotoxicity in CD-1 mouse assessed as appearance of pale yellow color organ at 10 mg/kg, po administered as single dose via gavage measured after 24 hrs; assay type: toxicity, organism-based
[5] = Hepatotoxicity in CD-1 mouse assessed as appearance of mottled organ at 10 mg/kg, po administered as single dose via gavage measured after 24 hrs; assay type: toxicity, organism-based
[6] = Toxicity in CD-1 mouse assessed as gastrointestinal bleeding at 10 mg/kg, po administered as single dose via gavage measured after 24 hrs; assay type: organism-based
[7] = Toxicity in CD-1 mouse at 160 mg/kg, po administered as single dose via gavage; assay type: organism-based

Row | Compound | Activity [1] | Activity [2] | other results
1 | CCn1c(=O)n(Cc2cnn(C)c2)c(=O)c2cc(S(=O)(=O)NC3(C)CC3)ccc21 | Non-Toxic | Toxic | –
2 | Cn1cc(Cn2c(=O)c3cc(S(=O)(=O)NC4(C)CC4)ccc3n(C)c2=O)cn1 | Non-Toxic | Toxic | –
3 | CCn1c(=O)n(Cc2cnn(C)c2)c(=O)c2cc(S(=O)(=O)NC3(CF)CC3)ccc21 | Non-Toxic | Toxic | Ratio [3]: Nd(Toxic); Activity [4]: Toxic; Activity [5]: Toxic; Activity [6]: Toxic
4 | Cn1cc(Cn2c(=O)c3cc(S(=O)(=O)NC4(CF)CC4)ccc3n(C)c2=O)cn1 | – | Toxic | –
5 | Cn1cc(Cn2c(=O)c3cc(S(=O)(=O)NC4(CF)CC4)ccc3n(Cc3ccn(C)n3)c2=O)cn1 | Non-Toxic | – | –
6 | Cn1cc(Cn2c(=O)c3cc(S(=O)(=O)NC4(C)CC4)ccc3n(Cc3ccn(C)n3)c2=O)cn1 | Non-Toxic | – | Activity [7]: Non-Toxic
7 | CCn1c(=O)n(Cc2cc(C)on2)c(=O)c2cc(S(=O)(=O)NC3(CF)CC3)ccc21 | – | Toxic | –
